Assay results: the NIST ThermoML archive (doi:10.1021/je901020a)

Assays:
[1] = refractive index (Na D-line) (dimensionless); xn = mol fraction of the nth substance listed; details: 101 kPa, Liquid, Standard Abbe refractometry
[2] = xn = mol fraction of the nth substance listed; details: 101 kPa, Liquid; for speed of sound: Pulse-echo method

CC1CCCCC1 [methylcyclohexane] + Cc1ccccc1C
Details	mass density, [2] [kg/m3]	refractive index, [1]	speed of sound, [2] [m/s]
298.15 K, x1 = 0.0558	868.7	1.49758	1340
298.15 K, x1 = 0.0973	863.5	1.49375	1333
298.15 K, x1 = 0.1875	852.9	1.48587	1318
298.15 K, x1 = 0.2979	839.7	1.47605	1300
298.15 K, x1 = 0.4084	827	1.46659	1283
298.15 K, x1 = 0.4965	817.1	1.45929	1271
298.15 K, x1 = 0.5946	806.3	1.45128	1259
298.15 K, x1 = 0.6948	795.5	1.44332	1246
298.15 K, x1 = 0.7944	785.2	1.43568	1235
298.15 K, x1 = 0.8912	775.6	1.42852	1225
298.15 K, x1 = 0.9497	769.9	1.42429	1219
298.15 K, x1 = 1	765	1.42062	1215
313.15 K, x1 = 0.049	856.8	1.49036	1281
313.15 K, x1 = 0.0983	850.8	1.48589	1272
313.15 K, x1 = 0.1972	838.9	1.47705	1255
313.15 K, x1 = 0.2832	828.7	1.46962	1241
313.15 K, x1 = 0.403	814.8	1.45951	1222
313.15 K, x1 = 0.5001	803.8	1.4514	1208
313.15 K, x1 = 0.598	793	1.44349	1195
313.15 K, x1 = 0.6977	782.3	1.43558	1182
313.15 K, x1 = 0.7947	772.2	1.4281	1171
313.15 K, x1 = 0.9013	761.5	1.42003	1160
313.15 K, x1 = 0.9474	756.9	1.4165	1154
313.15 K, x1 = 1	751.9	1.41274	1150

Cc1cc(C)cc(C)c1 [1,3,5-trimethylbenzene] + CC1CCCCC1
Details	mass density, [2] [kg/m3]	refractive index, [1]	speed of sound, [2] [m/s]
298.15 K, x2 = 0	861.1	1.49693	1336
298.15 K, x2 = 0.0463	856.7	1.49346	1330
298.15 K, x2 = 0.0962	851.9	1.48973	1323
298.15 K, x2 = 0.197	842.2	1.48211	1310
298.15 K, x2 = 0.2868	833.5	1.47524	1298
298.15 K, x2 = 0.3963	822.8	1.46685	1283
298.15 K, x2 = 0.4972	813	1.45909	1271
298.15 K, x2 = 0.5956	803.4	1.45153	1259
298.15 K, x2 = 0.6974	793.6	1.44373	1247
298.15 K, x2 = 0.7932	784.3	1.43635	1236
298.15 K, x2 = 0.8942	774.8	1.42859	1226
298.15 K, x2 = 0.9497	769.6	1.42444	1220
313.15 K, x2 = 0	848.8	1.48923	1277
313.15 K, x2 = 0.0524	843.8	1.48547	1269
313.15 K, x2 = 0.1075	838.5	1.48144	1262
313.15 K, x2 = 0.2051	829.1	1.47418	1248
313.15 K, x2 = 0.314	818.5	1.466	1233
313.15 K, x2 = 0.4067	809.5	1.45892	1221
313.15 K, x2 = 0.5093	799.5	1.45103	1207
313.15 K, x2 = 0.6083	789.8	1.44335	1195
313.15 K, x2 = 0.7071	780.1	1.43558	1183
313.15 K, x2 = 0.8106	770.1	1.42752	1171
313.15 K, x2 = 0.9093	760.4	1.41983	1159
313.15 K, x2 = 0.9596	755.7	1.41588	1154

Cc1cc(C)cc(C)c1 [1,3,5-trimethylbenzene] + C1CCCCCCC1
x2 = 0
Details	mass density, [2] [kg/m3]	refractive index, [1]	speed of sound, [2] [m/s]
298.15 K	861.1	1.49693	1336
313.15 K	848.8	1.48923	1277

Cc1ccccc1C [1,2-dimethylbenzene] + CC1CCCCC1
x2 = 0
Details	mass density, [2] [kg/m3]	refractive index, [1]	speed of sound, [2] [m/s]
298.15 K	875.4	1.50262	1350
313.15 K	862.9	1.49466	1289

CC1CCCCC1 [methylcyclohexane] + Cc1cccc(C)c1
x1 = 1
Details	mass density, [2] [kg/m3]	refractive index, [1]	speed of sound, [2] [m/s]
298.15 K	765	1.42062	1215
313.15 K	751.9	1.41274	1150

Cc1ccc(C)cc1 [1,4-dimethylbenzene] + C1CCCCCCC1
x2 = 0
Details	mass density, [2] [kg/m3]	refractive index, [1]	speed of sound, [2] [m/s]
298.15 K	856.6	1.49312	1310
313.15 K	843.5	1.48444	1248

C1CCCC1 [cyclopentane] + Cc1cc(C)cc(C)c1
Details	mass density, [2] [kg/m3]	refractive index, [1]	speed of sound, [2] [m/s]
298.15 K, x1 = 0.0383	857.8	1.49446	1332
298.15 K, x1 = 0.0884	853.3	1.49105	1325
298.15 K, x1 = 0.1869	843.9	1.48398	1311
298.15 K, x1 = 0.2531	837.5	1.47925	1302
298.15 K, x1 = 0.3849	823.5	1.46883	1283
298.15 K, x1 = 0.4879	811.9	1.4596	1269
298.15 K, x1 = 0.5891	799.5	1.45045	1255
298.15 K, x1 = 0.6926	786	1.4403	1241
298.15 K, x1 = 0.7807	774	1.43111	1229
298.15 K, x1 = 0.8901	757.9	1.41728	1216
298.15 K, x1 = 0.9487	748.6	1.40994	1210
298.15 K, x1 = 1	740	1.40292	1204
313.15 K, x1 = 0.0414	845.1	1.48675	1271
313.15 K, x1 = 0.0948	840.2	1.48324	1263
313.15 K, x1 = 0.1986	830.2	1.47585	1248
313.15 K, x1 = 0.2985	819.9	1.46786	1232
313.15 K, x1 = 0.4078	807.7	1.45906	1216
313.15 K, x1 = 0.4703	800.3	1.45335	1206
313.15 K, x1 = 0.6043	783.5	1.4411	1186
313.15 K, x1 = 0.7006	770.4	1.4312	1171
313.15 K, x1 = 0.8048	755.4	1.42003	1155
313.15 K, x1 = 0.9074	739.7	1.40648	1140
313.15 K, x1 = 0.9595	731.4	1.40014	1134
313.15 K, x1 = 1	725	1.39456	1130

CC1CCCCC1 [methylcyclohexane] + Cc1cc(C)cc(C)c1
x1 = 1
Details	mass density, [2] [kg/m3]	refractive index, [1]	speed of sound, [2] [m/s]
298.15 K	765.1	1.42062	1215
313.15 K	751.9	1.41274	1150

C1CCCCCCC1 [cyclooctane] + Cc1ccccc1C
Details	mass density, [2] [kg/m3]	refractive index, [1]	speed of sound, [2] [m/s]
298.15 K, x1 = 0.0513	871.8	1.49887	1347
298.15 K, x1 = 0.1015	868.4	1.49595	1348
298.15 K, x1 = 0.2	862.5	1.49039	1349
298.15 K, x1 = 0.3067	856.9	1.48468	1351
298.15 K, x1 = 0.4026	852.2	1.47987	1354
298.15 K, x1 = 0.5037	847.6	1.47508	1358
298.15 K, x1 = 0.6262	842.6	1.46963	1364
298.15 K, x1 = 0.7007	839.9	1.46653	1368
298.15 K, x1 = 0.8028	836.5	1.4626	1375
298.15 K, x1 = 0.8953	833.9	1.45933	1381
298.15 K, x1 = 0.9498	832.5	1.45752	1386
298.15 K, x1 = 1	831.5	1.45598	1391
313.15 K, x1 = 0.0508	859.7	1.49181	1289
313.15 K, x1 = 0.0905	857.3	1.48933	1289
313.15 K, x1 = 0.1697	852.7	1.48503	1289
313.15 K, x1 = 0.2967	845.9	1.47816	1291
313.15 K, x1 = 0.3824	841.6	1.47392	1293
313.15 K, x1 = 0.4839	836.9	1.46911	1296
313.15 K, x1 = 0.5878	832.4	1.46435	1300
313.15 K, x1 = 0.6869	828.6	1.46018	1305
313.15 K, x1 = 0.7892	825.1	1.45617	1310
313.15 K, x1 = 0.8891	822	1.45244	1317
313.15 K, x1 = 0.9368	820.7	1.45072	1321
313.15 K, x1 = 1	819.2	1.44877	1326

Cc1ccccc1C [1,2-dimethylbenzene] + C1CCCCC1
Details	mass density, [2] [kg/m3]	refractive index, [1]	speed of sound, [2] [m/s]
298.15 K, x2 = 0	875.4	1.50262	1350
298.15 K, x2 = 0.0471	870.8	1.49895	1343
298.15 K, x2 = 0.0981	865.5	1.49488	1336
298.15 K, x2 = 0.1961	855.2	1.48705	1323
298.15 K, x2 = 0.2986	844.5	1.47886	1310
298.15 K, x2 = 0.3979	834	1.47092	1298
298.15 K, x2 = 0.4964	823.8	1.46293	1288
298.15 K, x2 = 0.5975	813.5	1.45493	1278
298.15 K, x2 = 0.6978	803.2	1.44691	1269
298.15 K, x2 = 0.796	793.4	1.43924	1263
298.15 K, x2 = 0.8995	783.4	1.43126	1257
298.15 K, x2 = 0.9512	778.6	1.42739	1255
313.15 K, x2 = 0	862.9	1.49466	1289
313.15 K, x2 = 0.0528	857.4	1.49053	1282
313.15 K, x2 = 0.0977	852.7	1.48716	1275
313.15 K, x2 = 0.1958	842.3	1.47934	1261
313.15 K, x2 = 0.2169	840	1.47754	1258
313.15 K, x2 = 0.4011	820.4	1.46285	1234
313.15 K, x2 = 0.4999	809.9	1.45473	1222
313.15 K, x2 = 0.5976	799.6	1.44694	1211
313.15 K, x2 = 0.6971	789.4	1.43921	1201
313.15 K, x2 = 0.7994	779	1.43094	1193
313.15 K, x2 = 0.8995	769.1	1.42311	1186
313.15 K, x2 = 0.9484	764.5	1.41926	1183

Cc1ccc(C)cc1 [1,4-dimethylbenzene] + C1CCCC1
x2 = 0
Details	mass density, [2] [kg/m3]	refractive index, [1]	speed of sound, [2] [m/s]
298.15 K	856.6	1.49312	1310
313.15 K	843.5	1.48444	1248
